Inhibition data for 15 molecules are collected here from US9115137B2, “2,3,4,5-tetrahydro-1H-pyrido[4,3-B]indole compounds and methods of use thereof” (priority 2008, dated 2015).

The target in experiment [1] is T1, human recombinant histamine H1 receptor (Homo sapiens, UniProt P35367).
T1 construct: expressed in transfected cells; host or cells: CHO cells
Description: Histamine H1 radioligand binding ([3H]Pyrilamine). The following applies: compound at 1 μM; CHO cells; read-out: Histamine Binding (1 μM) H1, percent inhibition of specific binding. On the procedure:
To evaluate in radioligand binding assays the activity of compounds of the invention, human recombinant histamine H1 receptor expressed in Chinese hamster ovary (CHO) cells (De Backer, M. D. et al., Biochem. Biophys. Res. Comm. 197(3):1601, 1993) in a modified Tris-HCl buffer (50 mM Tris-HCl, pH 7.4, 2 mM MgCl2, 100 mM NaCl, 250 mM Sucrose) was used. Compounds of the invention were incubated with 1.2 nM [^3H]Pyrilamine for 180 minutes at 25° C. Non-specific binding was estimated in the presence of 1 μM pyrilamine. Receptor proteins were filtered and washed, the filters were then counted to determine [^3H]Pyrilamine specifically bound. Compounds were screened at 1 μM, using 1% DMSO as vehicle. Biochemical assay results are presented as the percent inhibition of specific binding in Table 5.

Experiment [2] has as its target T2, human recombinant histamine H2 receptor (Homo sapiens, UniProt P25021).
T2 construct: expressed in transfected cells; host or cells: CHO-K1 cells
The experiment in a line: Histamine H2 radioligand binding ([125I]aminopotentidine). The following applies: compound at 1 μM; CHO K1 cells; read-out: Histamine Binding (1 μM) H2, percent inhibition of specific binding. How it is done: To evaluate in radioligand binding assays the activity of compounds of the invention, human recombinant histamine H2 receptor expressed in Chinese hamster ovary (CHO) K1 cells (Ruat, M., Proc. Natl. Acad. Sci. USA. 87(5):1658, 1990) in a 50 mM Phosphate buffer, pH 7.4 was used. Compounds of the invention were incubated with 0.1 nM [^125I]aminopotentidine for 120 minutes at 25° C. Non-specific binding was estimated in the presence of 3 μM Tiotidine. Receptor proteins were filtered and washed, the filters were then counted to determine [^125I]Aminopotentidine specifically bound. Compounds were screened at 1 μM, using 1% DMSO as vehicle. Biochemical assay results are presented as the percent inhibition of specific binding in Table 5.

Experiment [3] deals with T3, human recombinant adrenergic α1D receptor (Homo sapiens, UniProt P25100).
T3 construct: expressed in transfected cells; host or cells: HEK-293 cells
T3 sequence (P25100 1-572): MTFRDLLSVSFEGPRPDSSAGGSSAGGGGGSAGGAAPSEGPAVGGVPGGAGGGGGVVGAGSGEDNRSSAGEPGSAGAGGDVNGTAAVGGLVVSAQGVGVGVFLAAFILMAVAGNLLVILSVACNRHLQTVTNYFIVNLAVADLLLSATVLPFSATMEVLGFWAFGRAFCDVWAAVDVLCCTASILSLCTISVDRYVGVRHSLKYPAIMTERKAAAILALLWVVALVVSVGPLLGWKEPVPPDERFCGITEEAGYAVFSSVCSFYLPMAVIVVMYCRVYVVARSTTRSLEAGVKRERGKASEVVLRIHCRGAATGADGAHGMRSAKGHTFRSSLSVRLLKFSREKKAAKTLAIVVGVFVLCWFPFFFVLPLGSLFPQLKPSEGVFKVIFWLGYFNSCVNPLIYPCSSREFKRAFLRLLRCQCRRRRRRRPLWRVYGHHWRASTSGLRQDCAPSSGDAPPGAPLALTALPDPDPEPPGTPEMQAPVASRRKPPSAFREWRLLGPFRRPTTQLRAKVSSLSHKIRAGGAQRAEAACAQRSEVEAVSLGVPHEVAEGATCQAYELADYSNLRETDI
Description: Adrenergic α1D radioligand binding ([3H]Prozosin). The following applies: compound at 1 μM; HEK-293 cells; read-out: Adrenergic (1 μM) α1D, percent inhibition of specific binding. How it is done:
To evaluate in radioligand binding assays the activity of compounds of the invention, human recombinant adrenergic α1D receptor expressed in human embryonic kidney (HEK-293) cells (Kenny, B. A. et al. Br. J. Pharmacol. 115(6):981, 1995) in a 50 mM Tris-HCl buffer, pH 7.4, was used. Compounds of invention were incubated with 0.6 nM [^3H]Prozosin for 60 minutes at 25° C. Non-specific binding was estimated in the presence of 10 μM phentolamine. Receptor proteins were filtered and washed, the filters were then counted to determine [^3H]Prozosin specifically bound. Compounds were screened at 1 μM or lower, using 1% DMSO as vehicle. Biochemical assay results are presented as the percent inhibition of specific binding in Table 6.

Experiment [4] concerns the target T4, human recombinant serotonin (5-Hydroxytryptamine) 5-HT2C receptor (Homo sapiens, UniProt P28335).
T4 construct: expressed in transfected cells; host or cells: CHO-K1 cells
T4 sequence (P28335 33-458): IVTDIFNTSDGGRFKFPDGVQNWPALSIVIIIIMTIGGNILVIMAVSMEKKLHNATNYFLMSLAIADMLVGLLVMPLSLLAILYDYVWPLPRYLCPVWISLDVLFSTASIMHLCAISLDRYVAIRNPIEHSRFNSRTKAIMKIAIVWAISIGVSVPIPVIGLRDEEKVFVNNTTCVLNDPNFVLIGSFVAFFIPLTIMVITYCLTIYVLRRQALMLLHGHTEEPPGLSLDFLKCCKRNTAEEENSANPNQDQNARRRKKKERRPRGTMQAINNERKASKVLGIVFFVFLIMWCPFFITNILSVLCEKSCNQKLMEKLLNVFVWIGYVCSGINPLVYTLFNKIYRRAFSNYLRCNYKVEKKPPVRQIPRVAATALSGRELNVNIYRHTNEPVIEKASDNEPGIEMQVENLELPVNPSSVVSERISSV
Description: Serotonin 5-HT2C radioligand binding ([3H]Mesulergine). To be noted: compound at 1 μM; CHO-K1 cells; read-out: Serotonin (1 μM) 5-HT2C, percent inhibition of specific binding. How it is done:
To evaluate in radioligand binding assays the activity of compounds of the invention, human recombinant serotonin (5-Hydroxytryptamine) 5-HT2C receptor expressed in Chinese hamster ovary (CHO-K1) cells (Wolf, W. A. and Schutz, J. S., J. Neurochem. 69:1449, 1997) in a modified Tris-HCl buffer (50 mM Tris-HCl, pH 7.4, 0.1% Ascorbic Acid, 10 μM Pargyline) was used. Compounds of the invention were incubated with 1 nM [^3H]Mesulergine for 60 minutes at 25° C. Non-specific binding was estimated in the presence of 1 μM Mianserin. Receptor proteins were filtered and washed, the filters were then counted to determine [^3H]Mesulergine specifically bound. Compounds were screened at 1 μM or lower, using 1% DMSO as vehicle. Biochemical assay results are presented as the percent inhibition of specific binding in Table 7.

By inhibition is commonly meant the change of the read-out against control, counted positive when it falls.

T2 sequence (P25021 whole entry): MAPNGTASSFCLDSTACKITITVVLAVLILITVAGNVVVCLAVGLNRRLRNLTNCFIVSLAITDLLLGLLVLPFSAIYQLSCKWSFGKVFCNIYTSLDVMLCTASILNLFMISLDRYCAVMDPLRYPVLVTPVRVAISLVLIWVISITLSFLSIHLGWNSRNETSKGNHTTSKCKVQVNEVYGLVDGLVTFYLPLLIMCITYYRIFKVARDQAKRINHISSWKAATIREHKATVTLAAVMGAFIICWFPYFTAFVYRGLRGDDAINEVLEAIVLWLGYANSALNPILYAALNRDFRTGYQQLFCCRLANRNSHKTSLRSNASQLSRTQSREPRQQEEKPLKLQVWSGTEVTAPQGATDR
T1 sequence (P35367 whole entry): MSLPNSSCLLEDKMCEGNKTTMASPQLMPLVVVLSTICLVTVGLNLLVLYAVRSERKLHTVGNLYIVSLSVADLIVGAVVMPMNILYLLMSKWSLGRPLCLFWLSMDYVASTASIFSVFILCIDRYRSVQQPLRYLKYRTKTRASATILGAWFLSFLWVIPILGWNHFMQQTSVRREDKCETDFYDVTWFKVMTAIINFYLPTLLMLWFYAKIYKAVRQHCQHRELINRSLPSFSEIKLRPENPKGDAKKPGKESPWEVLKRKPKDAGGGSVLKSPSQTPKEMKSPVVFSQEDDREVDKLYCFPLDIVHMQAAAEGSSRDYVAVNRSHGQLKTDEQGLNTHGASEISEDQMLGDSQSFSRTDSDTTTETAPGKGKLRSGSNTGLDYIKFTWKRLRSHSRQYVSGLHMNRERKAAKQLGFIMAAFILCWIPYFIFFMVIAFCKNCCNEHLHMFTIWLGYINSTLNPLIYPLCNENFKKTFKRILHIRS

Turning to `Cc1ccc2c(c1)c1c(n2CCC(=O)NC2CCCCC2)CCN(C)C1` [Compound 3, N-cyclohexyl-3-(1,2,3,4-tetrahydro-2,8-dimethylpyrido[4,3-b]indol-5-yl)propanamide], the inhibition at 1 µM in experiment [1] came to 2%; in experiment [2], 23%; in experiment [3] it was 45%; in experiment [4] it was 29%.
The corresponding values for `CC(C)OC(=O)Cn1c2c(c3cc(Cl)ccc31)CN(C)CC2` [Compound 11, isopropyl 2-(8-chloro-1,2,3,4-tetrahydro-2-methylpyrido[4,3-b]indol-5-yl)acetate] are 101%, 7%, 38% and 71%.
As to `Cc1ccc2c(c1)c1c(n2CCC(=O)NC2CCCC2)CCN(C)C1` [Compound 4, N-cyclopentyl-3-(1,2,3,4-tetrahydro-2,8-dimethylpyrido[4,3-b]indol-5-yl)propanamide], the inhibition at 1 µM amounted to 60% in experiment [1], 20% in experiment [2], 64% in experiment [3] and 36% in experiment [4].
The corresponding values for `CN1CCc2c(c3cc(Cl)ccc3n2CC(N)=O)C1` [Compound 45, 2-(8-chloro-1,2,3,4-tetrahydro-2-methylpyrido[4,3-b]indol-5-yl)acetamide] are 82%, 3%, 12% and 52%.
The corresponding values for `Cc1ccc2c(c1)c1c(n2CCBr)CCN(C)C1` [CD91, 5-(2-bromoethyl)-2,8-dimethyl-2,3,4,5-tetrahydro-1H-pyrido[4,3-b]indole] are 98%, 65%, 88% and 98%.
In the same order, the values of `Cc1ccc2c(c1)c1c(n2CC(=O)NCc2ccccc2)CCN(C)C1` [Compound 25, N-benzyl-2-(1,2,3,4-tetrahydro-2,8-dimethylpyrido[4,3-b]indol-5-yl)acetamide] are 72%, 9%, 22% and 61%.
For the molecule `CN1CCc2c(c3cc(Cl)ccc3n2CC(=O)OCc2ccccc2)C1` [Compound 13, benzyl 2-(8-chloro-1,2,3,4-tetrahydro-2-methylpyrido[4,3-b]indol-5-yl)acetate], the inhibition at 1 µM in experiment [1] came to 96%; in experiment [2], 51%; in experiment [3], 55%; in experiment [4], 91%.
In the same order, the values of `Cc1ccc2c(c1)c1c(n2CC(=O)NCC2CCCCC2)CCN(C)C1` [Compound 26, N-(cyclohexylmethyl)-2-(1,2,3,4-tetrahydro-2,8-dimethylpyrido[4,3-b]indol-5-yl)acetamide] are 66%, 22%, 32% and 54%.
On to `CN1CCc2c(c3cc(Cl)ccc3n2CC(=O)OCC2CCCCC2)C1` [Compound 14, cyclohexylmethyl 2-(8-chloro-1,2,3,4-tetrahydro-2-methylpyrido[4,3-b]indol-5-yl)acetate], for which the inhibition at 1 µM amounted to 98% in experiment [1], 89% in experiment [2], 72% in experiment [3] and 94% in experiment [4].
In the same order, the values of `Cc1ccc2c(c1)c1c(n2CC(=O)NC(C)C)CCN(C)C1` [Compound 23, 2-(1,2,3,4-tetrahydro-2,8-dimethylpyrido[4,3-b]indol-5-yl)-N-isopropylacetamide] are 65%, 1%, 15% and 37%.
In the same order, the values of `Cc1ccc2c(c1)c1c(n2CCNC(=O)c2ccncc2C)CCN(C)C1` [Compound 69, N-(2-(1,2,3,4-tetrahydro-2,8-dimethylpyrido[4,3-b]indol-5-yl)ethyl)-3-methylpyridine-4-carboxamide] are 88%, 14%, 30% and 24%.
Consider `Cc1ccc2c(c1)c1c(n2CC(=O)NC(C)(C)C)CCN(C)C1` [Compound 24, N-tert-butyl-2-(1,2,3,4-tetrahydro-2,8-dimethylpyrido[4,3-b]indol-5-yl)acetamide], for which the inhibition at 1 µM in experiment [1] was 44%; in experiment [2], 5%; in experiment [3] it was -4%; in experiment [4] it was 21%.
For the molecule `CN1CCc2c(c3cc(Cl)ccc3n2CCC(=O)OCC2CCCCC2)C1` [Compound 20, cyclohexylmethyl 3-(8-chloro-1,2,3,4-tetrahydro-2-methylpyrido[4,3-b]indol-5-yl)propanoate], the inhibition at 1 µM in experiment [1] amounted to 95%; in experiment [2], 93%; in experiment [3], 90%; in experiment [4] it was 88%.
In the same order, the values of `CCOC(=O)CCCn1c2c(c3cc(C)ccc31)CN(C)CC2` [Compound 5, ethyl 4-(1,2,3,4-tetrahydro-2,8-dimethylpyrido[4,3-b]indol-5-yl)butanoate] are 96%, 48%, 70% and 96%.
For `Cc1ccc2c(c1)c1c(n2CC(=O)O)CCN(C)C1` [CD58, 2-(1,2,3,4-tetrahydro-2,8-dimethylpyrido[4,3-b]indol-5-yl)acetic acid], the inhibition at 1 µM was 5% in experiment [1], 5% in experiment [2], 0% in experiment [3] and -19% in experiment [4].
